This is an account of results in US9365619B2, “IgG-binding peptide and method for detecting and purifying IgG using same” (Otsuka Chemical Co., Ltd., priority 2011, dated 2016).

This experiment deals with human IgG. Kind of experiment: Surface plasmon resonance (SPR) analysis of synthetic peptide binding to human IgG. The following applies: for Kd: SPR, synthetic peptide binding to human IgG, read-out: Kd; for affinity compared with the original peptide, in words: compared with GFc-C35-3/15. On the procedure: In order to narrow down the amino acid region to be studied, a peptide in which one amino acid was deleted from each end of GFc-C35 (GFc-C35-2/16) and a peptide in which two amino acids were deleted from each end of CFc-C35 (GFc-C35-3/15) were synthesized. Among these peptides, based on the GFc-C35-3/15 synthetic peptide, the effect of the introduction of amino acid mutations on affinity was evaluated. That is, the contribution of each amino acid substitution to affinity was evaluated by synthesizing peptides substituted with frequently or occasionally observed amino acids obtained from the phage libraries and subjecting the resulting synthetic peptides to binding analysis.
Based on the synthetic peptide C35A, peptides substituted with amino acids observed at high frequency in the aforementioned phage libraries were synthesized by introducing amino acid mutations, and in a similar manner to the above, their binding to human IgG was analyzed by surface plasmon resonance (SPR) analysis to evaluate the contribution of each amino acid substitution to affinity.
(In SPR one partner is held on a chip, and binding of the other changes the refractive index at the surface.)

Bridge positions count the residues as written; N and C are the ends. Peptide text beside a SMILES is read from it.

Regarding `CC(C)C[C@@H]1NC(=O)[C@H](CCC(=O)O)NC(=O)CNC(=O)[C@H](CCCNC(=N)N)NC(=O)[C@H](Cc2c[nH]cn2)NC(=O)[C@H](Cc2ccc(O)cc2)NC(=O)[C@H](C)NC(=O)[C@@H](NC(=O)[C@H](CCCNC(=N)N)NC(=O)[C@@H]2CCCN2C(=O)CN)CSSC[C@@H](C(=O)N[C@@H](CO)C(=O)N[C@@H](Cc2ccccc2)C(=O)N[C@@H](Cc2c[nH]cn2)C(N)=O)NC(=O)[C@H](Cc2c[nH]c3ccccc23)NC(=O)[C@H](C(C)C)NC1=O` [C35A (D3R, T15S), GPRCAYHRGELVWCSFH] (H-GPRCAYHRGELVWCSFH-NH2; disulfide 4-14), the dissociation constant (Kd) was 42 nM.

Take `CC(C)C[C@@H]1NC(=O)[C@H](CCC(=O)O)NC(=O)CNC(=O)[C@H](CCCNC(=N)N)NC(=O)[C@H](Cc2c[nH]cn2)NC(=O)[C@H](Cc2ccc(O)cc2)NC(=O)[C@H](C)NC(=O)[C@@H](NC(=O)[C@H](CO)NC(=O)[C@@H]2CCCN2C(=O)CN)CSSC[C@@H](C(=O)N[C@H](C(=O)N[C@@H](Cc2ccccc2)C(=O)N[C@@H](Cc2c[nH]cn2)C(N)=O)[C@@H](C)O)NC(=O)[C@H](Cc2c[nH]c3ccccc23)NC(=O)[C@H](C(C)C)NC1=O` [C35A (D3S), GPSCAYHRGELVWCTFH] (H-GPSCAYHRGELVWCTFH-NH2; disulfide 4-14): the dissociation constant Kd was found to be 28.5 nM.

Take `CC(C)C[C@@H]1NC(=O)[C@H](CCC(=O)O)NC(=O)CNC(=O)[C@H](CCCNC(=N)N)NC(=O)[C@H](Cc2c[nH]cn2)NC(=O)[C@H](Cc2ccc(O)cc2)NC(=O)[C@H](C)NC(=O)[C@@H](NC(=O)[C@H](CC(=O)O)NC(=O)[C@@H]2CCCN2C(=O)CN)CSSC[C@@H](C(=O)N[C@H](C(=O)N[C@@H](Cc2c[nH]cn2)C(=O)N[C@@H](Cc2c[nH]cn2)C(N)=O)[C@@H](C)O)NC(=O)[C@H](Cc2c[nH]c3ccccc23)NC(=O)[C@H](C(C)C)NC1=O` [C35A (F16H), GPDCAYHRGELVWCTHH] (H-GPDCAYHRGELVWCTHH-NH2; disulfide 4-14): the Kd was determined as 11.4 nM.

In the case of `CC(C)C[C@@H]1NC(=O)[C@H](CCC(=O)O)NC(=O)CNC(=O)[C@H](CCCNC(=N)N)NC(=O)[C@H](Cc2c[nH]cn2)NC(=O)[C@H](Cc2ccc(O)cc2)NC(=O)[C@H](C)NC(=O)[C@@H](NC(=O)[C@H](CC(=O)O)NC(=O)[C@@H]2CCCN2C(=O)[C@@H](N)CO)CSSC[C@@H](C(=O)N[C@H](C(=O)N[C@@H](Cc2ccccc2)C(=O)N[C@@H](Cc2c[nH]cn2)C(N)=O)[C@@H](C)O)NC(=O)[C@H](Cc2c[nH]c3ccccc23)NC(=O)[C@H](C(C)C)NC1=O` [C35A (G1S), SPDCAYHRGELVWCTFH] (H-SPDCAYHRGELVWCTFH-NH2; disulfide 4-14), the Kd stood at 9.3 nM.

Take `CC(C)C[C@@H]1NC(=O)[C@H](CCC(=O)O)NC(=O)CNC(=O)[C@H](CCCNC(=N)N)NC(=O)[C@H](Cc2c[nH]cn2)NC(=O)[C@H](Cc2ccc(O)cc2)NC(=O)[C@H](C)NC(=O)[C@@H](NC(=O)[C@H](CC(=O)O)NC(=O)[C@@H]2CCCN2C(=O)[C@@H](N)CO)CSSC[C@@H](C(=O)N[C@H](C(=O)N[C@@H](Cc2ccccc2)C(=O)N[C@@H](Cc2ccc(O)cc2)C(N)=O)[C@@H](C)O)NC(=O)[C@H](Cc2c[nH]c3ccccc23)NC(=O)[C@H](C(C)C)NC1=O` [C35A (G1S, H17Y), SPDCAYHRGELVWCTFY] (H-SPDCAYHRGELVWCTFY-NH2; disulfide 4-14): the Kd worked out at 11 nM.

For the compound `CC(C)C[C@@H]1NC(=O)[C@H](CCC(=O)O)NC(=O)CNC(=O)[C@H](CCCNC(=N)N)NC(=O)[C@H](Cc2c[nH]cn2)NC(=O)[C@H](Cc2ccc(O)cc2)NC(=O)[C@H](C)NC(=O)[C@@H](NC(=O)[C@H](CC(=O)O)NC(=O)[C@@H]2CCCN2C(=O)CN)CSSC[C@@H](C(=O)N[C@H](C(=O)N[C@@H](Cc2ccccc2)C(=O)N[C@@H](Cc2ccc(O)cc2)C(N)=O)[C@@H](C)O)NC(=O)[C@H](Cc2c[nH]c3ccccc23)NC(=O)[C@H](C(C)C)NC1=O` [C35A (H17Y), GPDCAYHRGELVWCTFY] (H-GPDCAYHRGELVWCTFY-NH2; disulfide 4-14), the Kd was 12 nM.

On to `CC(C)C[C@@H]1NC(=O)[C@H](CCC(=O)O)NC(=O)CNC(=O)[C@H](CCCNC(=N)N)NC(=O)[C@H](Cc2c[nH]cn2)NC(=O)[C@H](Cc2ccc(O)cc2)NC(=O)[C@H](C)NC(=O)[C@@H](NC(=O)[C@H](CC(=O)O)NC(=O)[C@H](CC(=O)O)NC(=O)CN)CSSC[C@@H](C(=O)N[C@H](C(=O)N[C@@H](Cc2ccccc2)C(=O)N[C@@H](Cc2c[nH]cn2)C(N)=O)[C@@H](C)O)NC(=O)[C@H](Cc2c[nH]c3ccccc23)NC(=O)[C@H](C(C)C)NC1=O` [C35A (P2D), GDDCAYHRGELVWCTFH] (H-GDDCAYHRGELVWCTFH-NH2; disulfide 4-14), for which the Kd was 13.3 nM.

For `CC(C)C[C@@H]1NC(=O)[C@H](CCC(=O)O)NC(=O)CNC(=O)[C@H](CCCNC(=N)N)NC(=O)[C@H](Cc2c[nH]cn2)NC(=O)[C@H](Cc2ccc(O)cc2)NC(=O)[C@H](C)NC(=O)[C@@H](NC(=O)[C@H](CC(=O)O)NC(=O)[C@H](CC(=O)O)NC(=O)[C@@H](N)CO)CSSC[C@@H](C(=O)N[C@H](C(=O)N[C@@H](Cc2ccccc2)C(=O)N[C@@H](Cc2ccc(O)cc2)C(N)=O)[C@@H](C)O)NC(=O)[C@H](Cc2c[nH]c3ccccc23)NC(=O)[C@H](C(C)C)NC1=O` [C35A (P2D, H17Y), SDDCAYHRGELVWCTFY] (H-SDDCAYHRGELVWCTFY-NH2; disulfide 4-14), the Kd turned out to be 13 nM.

With `CC(C)C[C@@H]1NC(=O)[C@H](CCC(=O)O)NC(=O)CNC(=O)[C@H](CCCNC(=N)N)NC(=O)[C@H](Cc2c[nH]cn2)NC(=O)[C@H](Cc2ccc(O)cc2)NC(=O)[C@H](C)NC(=O)[C@@H](NC(=O)[C@H](CC(=O)O)NC(=O)[C@@H]2CCCN2C(=O)CN)CSSC[C@@H](C(=O)N[C@@H](CO)C(=O)N[C@@H](Cc2ccccc2)C(=O)N[C@@H](Cc2c[nH]cn2)C(N)=O)NC(=O)[C@H](Cc2c[nH]c3ccccc23)NC(=O)[C@H](C(C)C)NC1=O` [C35A (T15S), GPDCAYHRGELVWCSFH] (H-GPDCAYHRGELVWCSFH-NH2; disulfide 4-14), the Kd turned out to be 14.4 nM.

Take `CC(C)C[C@@H]1NC(=O)[C@H](CC(N)=O)NC(=O)CNC(=O)[C@H](CC(N)=O)NC(=O)[C@H]([C@@H](C)O)NC(=O)[C@H](Cc2ccc(O)cc2)NC(=O)[C@H]([C@@H](C)O)NC(=O)[C@@H](NC(=O)[C@H](CC(=O)O)NC(=O)[C@@H]2CCCN2C(=O)CN)CSSC[C@@H](C(=O)N[C@H](C(=O)N[C@@H](Cc2ccccc2)C(=O)N[C@@H](Cc2c[nH]cn2)C(N)=O)[C@@H](C)O)NC(=O)[C@H](Cc2c[nH]c3ccccc23)NC(=O)[C@H](C(C)C)NC1=O` [GFc-C35, GPDCTYTNGNLVWCTFH] (H-GPDCTYTNGNLVWCTFH-NH2; disulfide 4-14): the Kd was 14000 nM.

For `CC(C)C[C@@H]1NC(=O)[C@H](CC(N)=O)NC(=O)CNC(=O)[C@H](CC(N)=O)NC(=O)[C@H]([C@@H](C)O)NC(=O)[C@H](Cc2ccc(O)cc2)NC(=O)[C@H]([C@@H](C)O)NC(=O)[C@@H](NC(=O)[C@H](CC(=O)O)NC(=O)[C@@H]2CCCN2)CSSC[C@@H](C(=O)N[C@H](C(=O)N[C@@H](Cc2ccccc2)C(N)=O)[C@@H](C)O)NC(=O)[C@H](Cc2c[nH]c3ccccc23)NC(=O)[C@H](C(C)C)NC1=O` [GFc-C35-2/16, PDCTYTNGNLVWCTF] (H-PDCTYTNGNLVWCTF-NH2; disulfide 3-13), the Kd stood at 25000 nM.

`CC(C)C[C@@H]1NC(=O)[C@H](CC(N)=O)NC(=O)CNC(=O)[C@H](CC(N)=O)NC(=O)[C@H]([C@@H](C)O)NC(=O)[C@H](Cc2ccc(O)cc2)NC(=O)[C@H]([C@@H](C)O)NC(=O)[C@@H](NC(=O)[C@@H](N)CCCNC(=N)N)CSSC[C@@H](C(=O)N[C@H](C(N)=O)[C@@H](C)O)NC(=O)[C@H](Cc2c[nH]c3ccccc23)NC(=O)[C@H](C(C)C)NC1=O` [GFc-C35-3/15 (D3R), RCTYTNGNLVWCT] (H-RCTYTNGNLVWCT-NH2; disulfide 2-12): the Kd was determined as 69000 nM and the “affinity compared with the original peptide, in words” value is “an increase in affinity”.

For `CSCC[C@@H]1NC(=O)[C@H](CC(N)=O)NC(=O)CNC(=O)[C@H](CC(N)=O)NC(=O)[C@H]([C@@H](C)O)NC(=O)[C@H](Cc2ccc(O)cc2)NC(=O)[C@H]([C@@H](C)O)NC(=O)[C@@H](NC(=O)[C@@H](N)CC(=O)O)CSSC[C@@H](C(=O)N[C@H](C(N)=O)[C@@H](C)O)NC(=O)[C@H](Cc2c[nH]c3ccccc23)NC(=O)[C@H](C(C)C)NC1=O` [GFc-C35-3/15 (L11M), DCTYTNGNMVWCT] (H-DCTYTNGNMVWCT-NH2; disulfide 2-12), the Kd was found to be 280000 nM and the “affinity compared with the original peptide, in words” value is reported as “a decrease in affinity”.

Turning to `CC(C)C[C@@H]1NC(=O)[C@H](CC(N)=O)NC(=O)CNC(=O)[C@H](CC(C)C)NC(=O)[C@H]([C@@H](C)O)NC(=O)[C@H](Cc2ccc(O)cc2)NC(=O)[C@H]([C@@H](C)O)NC(=O)[C@@H](NC(=O)[C@@H](N)CC(=O)O)CSSC[C@@H](C(=O)N[C@H](C(N)=O)[C@@H](C)O)NC(=O)[C@H](Cc2c[nH]c3ccccc23)NC(=O)[C@H](C(C)C)NC1=O` [GFc-C35-3/15 (N8L), DCTYTLGNLVWCT] (H-DCTYTLGNLVWCT-NH2; disulfide 2-12), the Kd turned out to be 260000 nM and the “affinity compared with the original peptide, in words” value is “greatly degreased affinity”.

In the case of `CC(C)C[C@@H]1NC(=O)[C@H](CC(N)=O)NC(=O)CNC(=O)[C@H](CCCNC(=N)N)NC(=O)[C@H]([C@@H](C)O)NC(=O)[C@H](Cc2ccc(O)cc2)NC(=O)[C@H]([C@@H](C)O)NC(=O)[C@@H](NC(=O)[C@@H](N)CC(=O)O)CSSC[C@@H](C(=O)N[C@H](C(N)=O)[C@@H](C)O)NC(=O)[C@H](Cc2c[nH]c3ccccc23)NC(=O)[C@H](C(C)C)NC1=O` [GFc-C35-3/15 (N8R), DCTYTRGNLVWCT] (H-DCTYTRGNLVWCT-NH2; disulfide 2-12), the Kd stood at 8000 nM and the “affinity compared with the original peptide, in words” value is “greatly increased affinity”. Besides, where the note is “relative to original peptide GFc-C35-3/15”, the “fold increase in affinity (fold decrease in Kd value)” value is listed as “approximately 18 fold”.

A word on the Kd: it is the constant that tells how readily two partners part at equilibrium.
